Literature values, collected in EP3466413A1, “PHARMACEUTICAL COMPOSITION CONTAINING AGOMELATINE AND PROCESS FOR THE PREPARATION THEREOF” (KRKA, d.d., Novo mesto, priority 2017, dated 2019).
Converted amounts (≈) assume the structure as drawn. Like-named read-outs stand apart in the source and are kept apart here.

Columns and labels:
[1] = second (proton) dissociation step, aqueous solution
[2] = crystalline powder

pKa2 [1]	solubility in aqueous buffers (aqueous buffers)	solubility in aqueous solution (aqueous solution over the physiological pH range)	solubility (dichloromethane) [mg/mL]	solubility (methanol)	solubility in organic solvents (organic solvents such as methanol and dichloromethane)	solubility in water (water)	hygroscopicity [2]	Structure (SMILES)
4.19								O=C(O)C(=O)O [oxalic acid]
	very slightly soluble	very slightly soluble	~80 (≈ 329 mM)	approximately 500 mg/ml	freely soluble	practically insoluble	non-hygroscopic	COc1ccc2cccc(CCNC(C)=O)c2c1 [Agomelatine, N[2-(7-methoxy-1-naphthyl)ethyl] acetamide]
